Consider seven molecules from PubChem BioAssay AID1259407 (Chemical Carcinogenesis Research Information System (CCRIS), 2018).

For the data set, the system named is CCRIS mutagenicity, Ames/micronucleus/aberration tests. The data set can be described thus: CCRIS mutagenicity studies.
Where [1] appears, read: Test System: AMES SALMONELLA TYPHIMURIUM, Strain/Indicator: TA98, Metabolic Activation: NONE, Method: PREINCUBATION
Where [2] appears, read: Test System: AMES SALMONELLA TYPHIMURIUM, Strain/Indicator: TA98, Metabolic Activation: RAT, LIVER, S-9, AROCLOR 1254 (10%), Method: PREINCUBATION
Setting [3] is: Test System: AMES SALMONELLA TYPHIMURIUM, Strain/Indicator: TA100, Metabolic Activation: NONE, Method: PREINCUBATION
Where [4] appears, read: Test System: AMES SALMONELLA TYPHIMURIUM, Strain/Indicator: TA100, Metabolic Activation: NONE, Method: STANDARD PLATE.
Setting [5] is: Test System: AMES SALMONELLA TYPHIMURIUM, Strain/Indicator: TA100, Metabolic Activation: RAT, LIVER, S-9, AROCLOR 1254 (10%), Method: PREINCUBATION
[6] abbreviates: Test System: AMES SALMONELLA TYPHIMURIUM, Strain/Indicator: TA102, Metabolic Activation: NONE, Method: PREINCUBATION

Molecules are shown by their SMILES. The source made the active and inactive calls. How the calls were made is not given here.

On to `Clc1nc2ccccc2nc1Cl`, for which the mutagenic call runs as follows: (Test System: AMES SALMONELLA TYPHIMURIUM, Strain/Indicator: TA98, Metabolic Activation: HAMSTER, LIVER, S-9, AROCLOR 1254 (10%), Method: PREINCUBATION) “inactive; negative”; (Test System: AMES SALMONELLA TYPHIMURIUM, Strain/Indicator: TA98, Metabolic Activation: HAMSTER, LIVER, S-9, AROCLOR 1254, Method: STANDARD PLATE) “inactive; negative”; under setting [1], “inactive; negative”; (Test System: AMES SALMONELLA TYPHIMURIUM, Strain/Indicator: TA98, Metabolic Activation: NONE, Method: STANDARD PLATE) “inactive; negative”; under setting [2], “inactive; negative”; (Test System: AMES SALMONELLA TYPHIMURIUM, Strain/Indicator: TA98, Metabolic Activation: RAT, LIVER, S-9, AROCLOR 1254, Method: STANDARD PLATE) “inactive; negative”. The mutagenic call runs as follows: (Test System: AMES SALMONELLA TYPHIMURIUM, Strain/Indicator: TA100, Metabolic Activation: HAMSTER, LIVER, S-9, AROCLOR 1254 (10%), Method: PREINCUBATION) “inactive; negative”; (Test System: AMES SALMONELLA TYPHIMURIUM, Strain/Indicator: TA100, Metabolic Activation: HAMSTER, LIVER, S-9, AROCLOR 1254, Method: STANDARD PLATE) “inactive; negative”; under setting [3], “inactive; negative”; under setting [4], “inactive; negative”; under setting [5], “inactive; negative”; (Test System: AMES SALMONELLA TYPHIMURIUM, Strain/Indicator: TA100, Metabolic Activation: RAT, LIVER, S-9, AROCLOR 1254, Method: STANDARD PLATE) “inactive; negative”. Also, the mutagenic call reads like this: (Test System: AMES SALMONELLA TYPHIMURIUM, Strain/Indicator: TA1535, Metabolic Activation: HAMSTER, LIVER, S-9, AROCLOR 1254 (10%), Method: PREINCUBATION) “inactive; negative”; (Test System: AMES SALMONELLA TYPHIMURIUM, Strain/Indicator: TA1535, Metabolic Activation: HAMSTER, LIVER, S-9, AROCLOR 1254, Method: STANDARD PLATE) “inactive; negative”; (Test System: AMES SALMONELLA TYPHIMURIUM, Strain/Indicator: TA1535, Metabolic Activation: NONE, Method: PREINCUBATION) “inactive; negative”; (Test System: AMES SALMONELLA TYPHIMURIUM, Strain/Indicator: TA1535, Metabolic Activation: NONE, Method: STANDARD PLATE) “inactive; negative”; (Test System: AMES SALMONELLA TYPHIMURIUM, Strain/Indicator: TA1535, Metabolic Activation: RAT, LIVER, S-9, AROCLOR 1254 (10%), Method: PREINCUBATION) “inactive; negative”; (Test System: AMES SALMONELLA TYPHIMURIUM, Strain/Indicator: TA1535, Metabolic Activation: RAT, LIVER, S-9, AROCLOR 1254, Method: STANDARD PLATE) “inactive; negative”. Besides, the mutagenic call by setting is: (Test System: AMES SALMONELLA TYPHIMURIUM, Strain/Indicator: TA1537, Metabolic Activation: HAMSTER, LIVER, S-9, AROCLOR 1254 (10%), Method: PREINCUBATION) “inactive; negative”; (Test System: AMES SALMONELLA TYPHIMURIUM, Strain/Indicator: TA1537, Metabolic Activation: HAMSTER, LIVER, S-9, AROCLOR 1254, Method: STANDARD PLATE) “inactive; negative”; (Test System: AMES SALMONELLA TYPHIMURIUM, Strain/Indicator: TA1537, Metabolic Activation: NONE, Method: PREINCUBATION) “inactive; negative”; (Test System: AMES SALMONELLA TYPHIMURIUM, Strain/Indicator: TA1537, Metabolic Activation: NONE, Method: STANDARD PLATE) “inactive; negative”; (Test System: AMES SALMONELLA TYPHIMURIUM, Strain/Indicator: TA1537, Metabolic Activation: RAT, LIVER, S-9, AROCLOR 1254 (10%), Method: PREINCUBATION) “inactive; negative”; (Test System: AMES SALMONELLA TYPHIMURIUM, Strain/Indicator: TA1537, Metabolic Activation: RAT, LIVER, S-9, AROCLOR 1254, Method: STANDARD PLATE) “inactive; negative”. The mutagenic call was “inactive; negative” (Test System: AMES SALMONELLA TYPHIMURIUM, Strain/Indicator: TA1538, Metabolic Activation: HAMSTER, LIVER, S-9, AROCLOR 1254, Method: STANDARD PLATE); “inactive; negative” (Test System: AMES SALMONELLA TYPHIMURIUM, Strain/Indicator: TA1538, Metabolic Activation: NONE, Method: STANDARD PLATE); “inactive; negative” (Test System: AMES SALMONELLA TYPHIMURIUM, Strain/Indicator: TA1538, Metabolic Activation: RAT, LIVER, S-9, AROCLOR 1254, Method: STANDARD PLATE); “active; positive. reevaluation of results: equivocal” (Test System: MOUSE LYMPHOMA, Strain/Indicator: L5178Y (TK+/TK-), Metabolic Activation: NONE, Method: SUSPENSION/PLATE); “active; positive. reevaluation of results: positive” (Test System: MOUSE LYMPHOMA, Strain/Indicator: L5178Y (TK+/TK-), Metabolic Activation: RAT, LIVER, S-9, AROCLOR 1254, Method: SUSPENSION/PLATE).
`[Cl][Pb][Cl]`: the mutagenic call is “active; positive (aneugenic above 1.1 um)” (End Point: IN VITRO MICRONUCLEUS, Test System: HAMSTER V79 CELLS, Metabolic Activation: NONE); “active; positive” (Test System: CHINESE HAMSTER OVARY, Strain/Indicator: CHO-AS52/6-THIOGUANINE, Metabolic Activation: NONE); “inactive; negative” (Test System: CHINESE HAMSTER V-79, Strain/Indicator: SP5 V-79 (HPRT)/6-THIOGUANINE, Metabolic Activation: NONE, Method: STANDARD PLATE); “inactive; negative” (Test System: CHINESE HAMSTER V-79, Strain/Indicator: SPD8 V-79 (HPRT)/6-THIOGUANINE, Metabolic Activation: NONE, Method: STANDARD PLATE).
`ClC[C@H]1CO1`: the mutagenic call is “active; positive” under setting [3]; “active; positive” under setting [4]; “active; positive” (Test System: AMES SALMONELLA TYPHIMURIUM, Strain/Indicator: TA100, Metabolic Activation: RAT, LIVER, S-9, PCB, Method: PREINCUBATION).
As for `Cc1nccnc1C`, the mutagenic call is “inactive; negative” under setting [1]; “inactive; negative” (Test System: AMES SALMONELLA TYPHIMURIUM, Strain/Indicator: TA98, Metabolic Activation: RAT, LIVER, S-9, AROCLOR 1254, Method: PREINCUBATION); “inactive; negative” under setting [3]; “inactive; negative” (Test System: AMES SALMONELLA TYPHIMURIUM, Strain/Indicator: TA100, Metabolic Activation: RAT, LIVER, S-9, AROCLOR 1254, Method: PREINCUBATION); “inactive; negative” under setting [6]; “inactive; negative” (Test System: AMES SALMONELLA TYPHIMURIUM, Strain/Indicator: TA102, Metabolic Activation: RAT, LIVER, S-9, AROCLOR 1254, Method: PREINCUBATION).
Consider `O=c1c2[nH]c3ccccc3c2nnn1/N=C/c1ccc(Cl)cc1`, for which the mutagenic call (Test System: AMES SALMONELLA TYPHIMURIUM, Strain/Indicator: TA97, Metabolic Activation: NONE, Method: PREINCUBATION) is “inactive; negative”; the mutagenic call (Test System: AMES SALMONELLA TYPHIMURIUM, Strain/Indicator: TA97, Metabolic Activation: RAT, LIVER, S-9, AROCLOR 1254 (10%), Method: PREINCUBATION) is “active; positive”; the mutagenic call under setting [1] was “active; positive”; the mutagenic call under setting [2] is “active; positive”; the mutagenic call under setting [3] is “inactive; negative”; the mutagenic call under setting [5] was “active; positive”. In addition, the mutagenic call under setting [6] is “inactive; negative” and the mutagenic call (Test System: AMES SALMONELLA TYPHIMURIUM, Strain/Indicator: TA102, Metabolic Activation: RAT, LIVER, S-9, AROCLOR 1254 (10%), Method: PREINCUBATION) was “inactive; negative”.
In the case of `CC(Br)C(=O)NC(C)(C)C` (stereo not drawn), under setting [4], the mutagenic call was “inactive; negative”.
`ClCC(Cl)CBr` (stereo not drawn): the mutagenic call is “active; positive” (Test System: AMES SALMONELLA TYPHIMURIUM, Strain/Indicator: TA100, Metabolic Activation: RAT, LIVER, MICROSOMES, PHENOBARBITAL, NADPH COFACTORS, Method: STANDARD PLATE) and “inactive; negative” (Test System: AMES SALMONELLA TYPHIMURIUM, Strain/Indicator: TA100, Metabolic Activation: RAT, LIVER, MICROSOMES, PHENOBARBITAL, Method: STANDARD PLATE).
